pEC50, pIC50: −log10 of the molar value.
Columns and labels:
[1] = biological target: human Bisphosphoglycerate mutase (hBPGM) (Homo sapiens (Human), UniProt P07738); test: BPGM Phosphatase Assay; type: biochemical; details: Table 6 additional results; read-out: huBPGM: phosphatase Enzyme EC50
Protocol: Solutions of the test compounds were then added to the plate and the DMSO content was normalized across the plate. The plate was incubated at RT for 15 min. Next, the substrate 2,3-BPG (5 μL) was added to all the wells, and the plate was sealed and incubated for 24 hr at RT. After incubation, BIOMOL green dye (40 μL) was added to all the wells, the plate was shaken to mix, and the plate was incubated at RT for 20-30 min.

hBPGM = hBPGM (Homo sapiens (Human), UniProt P07738); test: BPGM Synthase Assay; type: biochemical; details: Table 6 additional results; read-out: huBPGM: synthase Enzyme IC50
Chain of hBPGM (P07738 whole entry, looked up): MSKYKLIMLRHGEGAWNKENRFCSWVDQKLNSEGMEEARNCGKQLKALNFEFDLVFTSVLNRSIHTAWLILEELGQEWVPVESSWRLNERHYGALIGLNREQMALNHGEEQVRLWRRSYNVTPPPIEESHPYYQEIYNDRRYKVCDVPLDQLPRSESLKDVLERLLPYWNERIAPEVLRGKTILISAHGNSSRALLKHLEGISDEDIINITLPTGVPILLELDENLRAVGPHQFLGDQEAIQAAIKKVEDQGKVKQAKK
Method in brief: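 BPGM (5 nM) with GAPDH (0.4 U/mL) was incubated with compound for 30 min at RT in pH 7.4 Tris buffer with 3.23 mM KH2PO4 and 1 mM DTT. Reaction ran 60 min with NAD, 3PG and GAP (substrate solution 2 mM, 20 μM and 800 μM). After koningic acid stop, NADH fluorescence was read, then resorufin from diaphorase/resazurin coupling.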

Chain of human Bisphosphoglycerate mutase (hBPGM) (P07738 whole entry): as the sequence (P07738 whole entry, looked up) above

| Structure (SMILES) | pEC50 [1] | pIC50 (hBPGM) |
| --- | --- | --- |
| Cc1nc(CNC(=O)CN(C)C)sc1-c1csc(-c2cc(O)c(C(=O)O)cc2F)n1 [Example 120] | < 4.60 | 6.30 |
| Cc1nc(CNC2CCOC2)sc1-c1cccc(-c2ccc(C(=O)O)cc2)c1 (centres unmarked) [Example 50] | < 4.60 | < 4.60 |
| Cc1nc(C)c(-c2csc(-c3cc(O)c(C(=O)O)cc3F)n2)s1 [Example 285] | 6.40 | 6.49 |
| Cc1cccc(Cc2nc(C)c(-c3cccc(-c4ccc(C(=O)O)c(O)c4)c3)s2)n1 [Example 279] | 5.16 | 5.59 |
| Cc1nc(COc2ncccn2)sc1-c1cccc(-c2c[nH]c(C(=O)O)c2)n1 [Example 76] | < 4.60 | 5.46 |
| Cc1nc(CNC(=O)C2CCC2)sc1-c1csc(-c2cc(O)c(C(=O)O)cc2F)n1 [Example 220] | 7.20 | 7.28 |
| Cc1nc(C)c(-c2csc(-c3cc(O)c(C(=O)O)cc3F)c2)s1 [Example 254] | 6.66 | 6.54 |
| Cc1ccnc(NCc2nc(C)c(-c3cccc(-c4ccc(C(=O)O)c(O)c4)c3)s2)c1 [Example 68] | 7.22 | 5.85 |
| Cc1nc(C)c(-c2nsc(-c3ccc(C(=O)O)c(O)c3)n2)s1 [Example 283] | 5.19 | 5.89 |
| Cc1nc(CNC(=O)C(C)(C)N(C)C)sc1-c1csc(-c2cc(O)c(C(=O)O)cc2F)n1 [Example 123] | 5.01 | 6.28 |
| Cc1nc(CNC(=O)C2CCCC2)sc1-c1csc(-c2cc(O)c(C(=O)O)cc2F)n1 [Example 222] | 6.89 | 6.96 |
| Cc1nc(Cn2cccn2)sc1-c1csc(-c2cc(O)c(C(=O)O)cc2F)c1 [Example 229] | 7.52 | 6.72 |
| Cc1nc(CNC(=O)OC2CC2)sc1-c1csc(-c2cc(O)c(C(=O)O)cc2F)n1 [Example 215] | 7.26 | 7.02 |
| Cc1nc(CN)sc1-c1csc(-c2cc(O)c(C(=O)O)cc2F)n1 [Example 243] | 6.00 | 6.08 |
| Cc1nc(CNC(=O)C2COC2)sc1-c1cccc(-c2ccc(C(=O)O)c(O)c2)c1 [Example 247] | 5.41 | 6.00 |
| Cc1nc(Cc2cccnc2)sc1-c1cccc(-c2ccc(C(=O)O)c(O)c2)c1 [Example 273] | 6.77 | 6.41 |
| Cc1nc(CNc2ccn(C)n2)sc1-c1csc(-c2cc(O)c(C(=O)O)cc2F)n1 [Example 221] | 7.46 | 7.05 |
| Cc1nc(COc2ccc(C#N)cn2)sc1-c1cccc(-c2ccc(C(=O)O)c(O)c2)c1 [Example 93] | 6.57 | 5.48 |
| Cc1nc(COc2ccnn2C)sc1-c1csc(-c2cc(O)c(C(=O)O)cc2F)n1 [Example 218] | 6.77 | 6.89 |
| Cc1nc(Cc2ccccc2)sc1-c1csc(-c2cc(O)c(C(=O)O)cc2F)n1 [Example 182] | 7.30 | 6.25 |
| COC(=O)NCc1nc(C)c(-c2csc(-c3cc(O)c(C(=O)NCC(=O)O)cc3F)n2)s1 [Example 191] | 6.24 | 6.11 |
| Cc1nc(Cc2cccnc2)sc1-c1cccc(-c2cc(O)c(C(=O)O)cc2F)n1 [Example 217] | 6.92 | 6.96 |

| Structure (SMILES) | pEC50 [1] | pIC50 (hBPGM) |
| --- | --- | --- |
| Cc1nc(COC2CCCOC2)sc1-c1cccc(-c2cc(C(=O)O)cs2)n1 (centres unmarked) [Example 49] | 6.28 | 6.46 |
| Cc1nc(Cc2ccccc2)sc1-c1csc(-c2cc(O)c(C(=O)O)cc2F)n1 [Example 165] | 7.40 | 6.62 |
| Cc1nc(COc2cc(C(F)(F)F)nn2C)sc1-c1cccc(-c2ccc(C(=O)O)cc2)n1 [Example 65] | < 4.60 | 5.59 |
| Cc1nc(C(=O)c2ccn(C)n2)sc1-c1csc(-c2ccc(C(=O)O)c(O)c2)n1 [Example 190] | 6.21 | 6.44 |
| COC(=O)NCc1nc(C)c(-c2ccnc(-c3ccc(C(=O)O)c(O)c3)n2)s1 [Example 185] | 7.52 | 6.80 |
| Cc1nc(CNC(=O)C(C)(C)C)sc1-c1csc(-c2cc(O)c(C(=O)O)cc2F)c1 [Example 139] | 7.05 | 7.08 |
| Cc1nc(CNC(=O)OC(C)C)sc1-c1csc(-c2cc(O)c(C(=O)O)cc2F)n1 [Example 234] | 7.10 | 7.08 |
| Cc1nc(C(C)NC(=O)C(C)(C)C)sc1-c1csc(-c2cc(O)c(C(=O)O)cc2F)n1 (centres unmarked) [Example 141] | 7.15 | 6.89 |
| Cc1nc(CN2CCCC2=O)sc1-c1cccc(-c2ccc(C(=O)O)c(O)c2)c1 [Example 260] | 5.25 | 5.85 |
| Cc1nc(CNC(=O)C(=O)N(C)C)sc1-c1csc(-c2cc(O)c(C(=O)O)cc2F)n1 [Example 203] | 6.01 | 6.68 |
| Cc1nc(COCC(N)=O)sc1-c1csc(-c2cc(O)c(C(=O)O)cc2F)n1 [Example 156] | 5.82 | 6.46 |
| Cc1nc(CNC(=O)C(N)=O)sc1-c1csc(-c2cc(O)c(C(=O)O)cc2F)n1 [Example 202] | 6.82 | 6.92 |
| COC(=O)NCc1nc(C)c(-c2csc(-c3cc(O)c(C(=O)O)cc3F)n2)s1 [Example 209] | 6.33 | 6.60 |
| Cc1nc(CNC(=O)C2CCNCC2)sc1-c1csc(-c2cc(O)c(C(=O)O)cc2F)n1 [Example 125] | 6.47 | 6.39 |
| Cc1nc(CNC(=O)c2cccnn2)sc1-c1cccc(-c2ccc(C(=O)O)c(O)c2)n1 [Example 148] | 6.55 | 6.60 |
| Cc1nc(Cn2cccc(C#N)c2=O)sc1-c1cccc(-c2ccc(C(=O)O)c(O)c2)c1 [Example 100] | 6.38 | 6.25 |
| Cc1nc(CN)sc1-c1csc(-c2ccc(C(=O)O)c(O)c2)n1 [Example 230] | < 4.60 | 5.36 |
| COC(=O)NCc1nc(C)c(-c2csc(-c3cc(O)c(C(=O)O)cc3C)n2)s1 [Example 130] | 7.40 | 7.15 |
| Cc1ccc(OCc2nc(C)c(-c3cccc(-c4ccc(C(=O)O)c(O)c4)c3)s2)nc1 [Example 82] | 6.68 | 5.96 |
| Cc1nc(Cc2ccn(C)n2)sc1-c1csc(-c2ccc(C(=O)O)c(O)c2)n1 [Example 189] | 6.48 | 6.92 |
| Cc1nc(COc2ncccn2)sc1-c1cccc(-c2cnc(C(=O)O)s2)n1 [Example 94] | < 4.60 | 4.96 |
| Cc1nc(Cc2cccnc2)sc1-c1csc(-c2cc(O)c(C(=O)O)cc2F)n1 [Example 228] | 7.26 | 7.06 |

| Structure (SMILES) | pEC50 [1] | pIC50 (hBPGM) |
| --- | --- | --- |
| Cc1nc(COC(=O)N(C)C)sc1-c1cccc(-c2ccc(C(=O)O)cc2)c1 [Example 67] | 6.26 | 6.06 |
| Cc1nc(CNc2ncccn2)sc1-c1csc(-c2cc(O)c(C(=O)O)cc2F)n1 [Example 149] | 7.15 | 7.52 |
| Cc1nc(CNC(=O)N(C)C)sc1-c1csc(-c2cc(O)c(C(=O)O)cc2F)n1 [Example 226] | 6.96 | 7.25 |
| COCCOCCOCCOCc1nc(C)c(-c2csc(-c3ccc(C(=O)O)cc3)n2)s1 [Example 270] | < 4.60 | 5.34 |
| Cc1nc(C)c(-c2nsc(-c3cc(O)c(C(=O)O)c(F)c3F)n2)s1 [Example 134] | 6.47 | 6.00 |
| Cc1nc(C)c(-c2csc(-c3ccc(C(=O)O)c(O)c3)c2)s1 [Example 274] | 6.41 | 6.37 |
| Cc1nc(CNc2ncccn2)sc1-c1cccc(-c2ccc(C(=O)O)cc2)n1 [Example 63] | < 4.60 | 6.20 |
| COC(=O)NCc1nc(C)c(-c2csc(-c3cc(O)c(C(=O)O)cn3)n2)s1 [Example 207] | 6.47 | 6.55 |
| COC(=O)NCc1nc(C)c(-c2csc(-c3c(F)cc(C(=O)O)cc3F)n2)s1 [Example 225] | 5.14 | 6.08 |
| COC(=O)NCc1nc(C)c(-c2cccc(-c3ccc(C(=O)O)c(O)c3)c2)s1 [Example 272] | 6.28 | 6.54 |
| Cc1nc(COC(=O)N2CCCC2)sc1-c1csc(-c2cc(O)c(C(=O)O)cc2F)n1 [Example 154] | 7.40 | 6.77 |
| Cc1nc(C)c(-c2nc(-c3ccc(C(=O)O)c(O)c3)co2)s1 [Example 275] | < 4.60 | 5.30 |
| Cc1nc(CNC(=O)c2ccccn2)sc1-c1csc(-c2cc(O)c(C(=O)O)cc2F)n1 [Example 200] | 6.57 | 7.14 |
| Cc1nc(CNS(C)(=O)=O)sc1-c1csc(-c2cc(O)c(C(=O)O)cc2F)n1 [Example 224] | 6.52 | 6.59 |
| COC(=O)NCc1nc(C)c(-c2csc(-c3cc(O)c(C(=O)O)cc3F)c2)s1 [Example 161] | 7.10 | 7.23 |
| Cc1nc(COc2ncccn2)sc1-c1csc(-c2cc(O)c(C(=O)O)cc2F)n1 [Example 137] | 7.70 | 7.55 |
| Cc1nc(CNC(=O)C2CC2)sc1-c1cccc(-c2ccc(C(=O)O)c(O)c2)c1 [Example 276] | 6.23 | 6.32 |
| Cc1nc(CNC(=O)c2cccnn2)sc1-c1cccc(-c2ccc(C(=O)O)cc2)c1 [Example 71] | < 4.60 | 6.25 |
| Cc1nc(CNC(=O)C2CC2)sc1-c1csc(-c2ccc(C(=O)O)c(O)c2)c1 [Example 97] | 6.80 | 7.00 |
| Cc1nc(CN)sc1-c1csc(-c2cc(O)c(C(=O)O)cc2F)c1 [Example 251] | 6.40 | 6.57 |

— patent US20230348450A1, “CARBOXYLIC ACID-CONTAINING COMPOUNDS AS MODULATORS OF BIS-PHOSPHOGLYCERATE MUTASE FOR THE TREATMENT OF SICKLE CELL DISEASE” (Genzyme Corporation, priority 2020, published 2023)
